The values below come from PubChem BioAssay (NCI).

Among the test systems are IGROV1 ovarian; M14 melanoma; SNB-19 CNS; COLO 205 colon; LOX IMVI melanoma; HOP-92 NSCLC; HT29 colon; PC-3 prostate; SF-268 CNS; SK-MEL-28 melanoma.
Assay in all cases: NCI-60 cell line screen, 48 h

The structures appear in SMILES notation.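 Assay format: 96-well plates, 48-hour exposure. Here, GI50 denotes the concentration required for 50% inhibition of growth. The concentration for full growth arrest is given as TGI.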

`C#CC[C@H](c1nc2cc(Cl)ccc2c(=O)n1Nc1ccccc1)N(CCCN)C(=O)c1cccc(Cl)c1F`: the GI50 in the test on IGROV1 ovarian is 0.979 µM; in the test on M14 melanoma, 0.3 µM; with SNB-19 CNS, 0.52 µM; in the test with COLO 205 colon, 0.0951 µM; with LOX IMVI melanoma, 0.325 µM; in the test with HOP-92 NSCLC, 0.179 µM. Also, the GI50 in the test on HT29 colon is 0.337 µM; with PC-3 prostate it was 0.196 µM; with SF-268 CNS it was 0.214 µM; in the test with SK-MEL-28 melanoma, 0.765 µM. Also, the TGI stood at 5.8 µM in the test with IGROV1 ovarian; 1.63 µM in the test with M14 melanoma; 7.85 µM with SNB-19 CNS; 0.868 µM in the test with COLO 205 colon; 1.84 µM with LOX IMVI melanoma; 1.65 µM in the test on HOP-92 NSCLC. Besides, the TGI with HT29 colon amounted to 1.32 µM; in the test on PC-3 prostate, 3.16 µM; in the test on SF-268 CNS, 2.61 µM; with SK-MEL-28 melanoma, 2.22 µM.

As to `Cc1ccc(C(=O)N/N=C/c2cccc(Oc3ccccc3)c2)cn1`, the GI50 in the test on IGROV1 ovarian is 19 µM; in the test with M14 melanoma, 6.08 µM; in the test with SNB-19 CNS it was 10.3 µM; in the test with COLO 205 colon, 5.66 µM; in the test on LOX IMVI melanoma, 8.54 µM; in the test with HOP-92 NSCLC, 12.7 µM. Also, the GI50 was 3.25 µM in the test with HT29 colon, 7.75 µM in the test on PC-3 prostate, 34.5 µM with SF-268 CNS and 27.3 µM in the test on SK-MEL-28 melanoma. In addition, the TGI with IGROV1 ovarian is greater than 100 µM; with M14 melanoma it was greater than 100 µM; in the test on SNB-19 CNS it was greater than 100 µM; with COLO 205 colon it was 38.1 µM; in the test with LOX IMVI melanoma, greater than 100 µM; with HOP-92 NSCLC, greater than 100 µM. Further, the TGI in the test on HT29 colon, in the test on PC-3 prostate, in the test with SF-268 CNS and in the test on SK-MEL-28 melanoma was greater than 100 µM each time.

For `NC(=O)C1=C(c2ccccc2)c2ccccc2C1=O`, the TGI came out at 30.6 µM in the test with IGROV1 ovarian; 36.8 µM in the test with M14 melanoma; 35.4 µM with SNB-19 CNS; 38.5 µM in the test on COLO 205 colon; 21.4 µM in the test with LOX IMVI melanoma; 35.3 µM in the test on HOP-92 NSCLC. Moreover, the TGI in the test on HT29 colon is 34.2 µM; with PC-3 prostate, 32.7 µM; in the test with SF-268 CNS, 44.3 µM; in the test on SK-MEL-28 melanoma it was 44.1 µM.

Regarding `CO/N=C1/NC(=O)/C(=C/c2ccc3ncccc3c2)S1`, the GI50 in the test on IGROV1 ovarian was 4.78 µM; in the test with M14 melanoma it was 9.85 µM; in the test on SNB-19 CNS, 11.6 µM; in the test on COLO 205 colon it was greater than 25 µM; with LOX IMVI melanoma, 12.8 µM; with HOP-92 NSCLC it was 4.48 µM. Moreover, the GI50 in the test with HT29 colon is 16.8 µM; in the test with PC-3 prostate it was 11.7 µM; with SF-268 CNS it was greater than 25 µM; in the test with SK-MEL-28 melanoma, 19.5 µM. Further, the TGI with IGROV1 ovarian is 15.9 µM; in the test with M14 melanoma, greater than 25 µM; in the test on SNB-19 CNS, greater than 25 µM; in the test on COLO 205 colon, greater than 25 µM; in the test on LOX IMVI melanoma, greater than 25 µM; with HOP-92 NSCLC, greater than 25 µM. Besides, the TGI in the test on HT29 colon, in the test with PC-3 prostate, in the test with SF-268 CNS and in the test with SK-MEL-28 melanoma was greater than 25 µM each time.

On to `CCOC(=O)C#Cc1ccc(C#CC(=O)OCC)cc1`, for which the TGI with IGROV1 ovarian is greater than 100 µM; in the test on M14 melanoma it was greater than 20.7 µM; in the test with SNB-19 CNS it was greater than 38.3 µM; with COLO 205 colon, 16.5 µM; with LOX IMVI melanoma it was greater than 22.1 µM; in the test on HOP-92 NSCLC, greater than 31.7 µM. The TGI was 5.27 µM in the test on HT29 colon, greater than 28.4 µM in the test with PC-3 prostate, greater than 22.4 µM in the test on SF-268 CNS and greater than 20.9 µM with SK-MEL-28 melanoma.

Consider `Cn1c(=O)c2[nH]c(COCc3nc4c([nH]3)c(=O)n(C)c(=O)n4C)nc2n(C)c1=O`, for which the TGI in the test on IGROV1 ovarian, in the test on M14 melanoma, with SNB-19 CNS, with COLO 205 colon, in the test with LOX IMVI melanoma and in the test on HOP-92 NSCLC was greater than 100 µM throughout. In addition, the TGI in the test on HT29 colon, with PC-3 prostate, in the test on SF-268 CNS and with SK-MEL-28 melanoma was greater than 100 µM throughout.

For the molecule `CN(/N=N/c1nc(OCc2ccccc2)c2[nH]cnc2n1)C(=O)N(C)/N=N/c1nc(OCc2ccccc2)c2[nH]cnc2n1`, the GI50 with IGROV1 ovarian is 34.9 µM; in the test on M14 melanoma it was 71.2 µM; with SNB-19 CNS, greater than 100 µM; in the test with COLO 205 colon, 37.5 µM; in the test on LOX IMVI melanoma, 37 µM; with HOP-92 NSCLC, 29.9 µM. In addition, the GI50 with HT29 colon is 60.5 µM; in the test with PC-3 prostate, 40.5 µM; in the test on SF-268 CNS, 47.6 µM; with SK-MEL-28 melanoma, greater than 100 µM. Moreover, the TGI with IGROV1 ovarian, in the test on M14 melanoma, in the test on SNB-19 CNS, with COLO 205 colon, in the test with LOX IMVI melanoma and in the test with HOP-92 NSCLC was greater than 100 µM throughout. In addition, the TGI with HT29 colon, with PC-3 prostate, with SF-268 CNS and with SK-MEL-28 melanoma was greater than 100 µM in each case.

As for `CC1(C)N=C(N)N=C(N)N1c1cccc(CCCCc2ccc(S(=O)(=O)F)cc2Cl)c1`, the GI50 with IGROV1 ovarian is 0.313 µM; in the test with M14 melanoma it was 7.55 µM; in the test with SNB-19 CNS, 1.64 µM; with COLO 205 colon it was 5.37 µM; in the test on LOX IMVI melanoma, 1.34 µM; in the test with HOP-92 NSCLC, 14 µM. The GI50 in the test on HT29 colon was 0.788 µM; in the test with PC-3 prostate it was 0.581 µM; with SF-268 CNS it was 1.96 µM; with SK-MEL-28 melanoma, 8.62 µM. Also, the TGI was greater than 38.5 µM with IGROV1 ovarian; 28.1 µM in the test on M14 melanoma; 20.6 µM in the test on SNB-19 CNS; 32.9 µM in the test with COLO 205 colon; greater than 41.7 µM in the test with LOX IMVI melanoma; 47.8 µM in the test on HOP-92 NSCLC. Besides, the TGI was greater than 100 µM in the test on HT29 colon, greater than 100 µM in the test with PC-3 prostate, 17.4 µM with SF-268 CNS and 22 µM with SK-MEL-28 melanoma.
